# According to publication PMC7932521, “2-aminobenzimidazoles for leishmaniasis: From initial hit discovery to in vivo profiling” (PLoS Neglected Tropical Diseases, 2021):
# pEC50, pIC50: −log10 of the molar value. Where two headings read alike, the source gives them in different places.
# How the values were obtained:
# MRC-5 cells = experiment: MRC-5 cytotoxicity; type: cell-based; details: for CC50: S1 Data; for pIC50: Homo sapiens, MRC5, panel sheet, average, read-out: IC-50 MRC-5 cells
# HEPG2 cytotoxicity = type: cell-based; details: human, HepG2 cells; S1 Data
# Description: Supplement pntd.0009196.s001.xlsx, sheet "Complete Dataset" | column: HEPG2 CC50 (uM)
# Plasma stability = type: in vitro ADME, mouse; details: for Plasma Stability: S1 Data; for Mouse plasma stability: % remaining after 6h
# Description: Pooled plasma was thawed in a water bath at 37°C and centrifuged at 4,000 rpm for 5 min to remove any clots. Plasma solution was prepared by adding PBS (pH 7.4) in a 1:1 ratio. It was not necessary to adjust the pH of the final plasma solution. Plasma:PBS and test compound solutions were added to the incubation plate at a final concentration of 2 μM. The plate was incubated in a shaker at 37°C and 50 rpm. Samples were removed (25 μL) from each well of the incubation plate at multiple timepoints and added to a plate containing 100 μL of quench solution (200 ng/mL tolbutamide in 50% acetonitrile/methanol) to precipitate protein. The quenched aliquots were centrifuged at 4000 rpm for 10 min at 5°C. An aliquot of supernatant was transferred from each well to a plate for analysis by LC-MS/MS. Results were calculated as the percentage of remaining parent compound in plasma after incubation.
# ETA [1] = target: T1, ETA (Homo sapiens, UniProt P25101); experiment: Bioprofiling 6pt Ag ETA CHO; type: cell-based; details: agonist readout
# T1 construct: expressed in transfected cells; host or cells: CHO
# T1 sequence (P25101 21-427): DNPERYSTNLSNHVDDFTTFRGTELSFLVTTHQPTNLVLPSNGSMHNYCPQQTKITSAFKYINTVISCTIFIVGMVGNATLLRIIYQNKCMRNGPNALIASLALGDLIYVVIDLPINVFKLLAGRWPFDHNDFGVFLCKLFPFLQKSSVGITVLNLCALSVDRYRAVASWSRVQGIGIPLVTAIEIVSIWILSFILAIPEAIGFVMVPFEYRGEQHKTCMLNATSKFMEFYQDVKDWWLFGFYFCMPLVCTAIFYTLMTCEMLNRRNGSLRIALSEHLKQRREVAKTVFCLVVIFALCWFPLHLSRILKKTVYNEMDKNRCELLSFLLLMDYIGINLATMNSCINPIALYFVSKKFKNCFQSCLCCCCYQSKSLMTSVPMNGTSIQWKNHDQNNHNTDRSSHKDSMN
# Description: (§1) The compounds were evaluated across a panel of 20 liability targets (37 functional assays) which included functional cell-based GPCRs and ion channels in both agonist and antagonist readout, measuring calcium flux and biochemical functional assays for nuclear hormone receptors and phosphodiesterases using TR-FRET format, in a 6 point 1:3 dilution dose series (maximum final concentration of 10 μM).
# PPARgamma = target: T2, PPARgamma (Homo sapiens, UniProt P37231); experiment: Bioprofiling 6pt Ag PPARgamma; type: biochemical; details: agonist readout
# T2 sequence (P37231 1-505): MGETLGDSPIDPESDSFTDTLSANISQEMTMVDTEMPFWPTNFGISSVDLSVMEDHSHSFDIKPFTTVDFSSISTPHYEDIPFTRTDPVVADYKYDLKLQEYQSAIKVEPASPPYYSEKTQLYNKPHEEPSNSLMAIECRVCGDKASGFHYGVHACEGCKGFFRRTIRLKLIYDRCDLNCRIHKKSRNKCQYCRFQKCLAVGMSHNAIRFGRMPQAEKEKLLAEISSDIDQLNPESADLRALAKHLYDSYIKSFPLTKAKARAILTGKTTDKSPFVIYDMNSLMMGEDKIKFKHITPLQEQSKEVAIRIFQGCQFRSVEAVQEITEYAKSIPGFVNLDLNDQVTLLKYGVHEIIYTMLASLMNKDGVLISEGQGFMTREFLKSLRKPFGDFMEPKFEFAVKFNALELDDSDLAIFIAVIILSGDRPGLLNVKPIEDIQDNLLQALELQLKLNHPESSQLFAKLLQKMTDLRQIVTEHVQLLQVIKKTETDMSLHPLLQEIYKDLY
# Description: as §1
# Alpha2A = target: T3, Alpha2A (Homo sapiens, UniProt P08913); experiment: Bioprofiling 6pt Antag Alpha2A CHO; type: cell-based; details: antagonist readout vs UK-14304
# T3 construct: expressed in transfected cells; host or cells: CHO
# T3 sequence (P08913 1-465): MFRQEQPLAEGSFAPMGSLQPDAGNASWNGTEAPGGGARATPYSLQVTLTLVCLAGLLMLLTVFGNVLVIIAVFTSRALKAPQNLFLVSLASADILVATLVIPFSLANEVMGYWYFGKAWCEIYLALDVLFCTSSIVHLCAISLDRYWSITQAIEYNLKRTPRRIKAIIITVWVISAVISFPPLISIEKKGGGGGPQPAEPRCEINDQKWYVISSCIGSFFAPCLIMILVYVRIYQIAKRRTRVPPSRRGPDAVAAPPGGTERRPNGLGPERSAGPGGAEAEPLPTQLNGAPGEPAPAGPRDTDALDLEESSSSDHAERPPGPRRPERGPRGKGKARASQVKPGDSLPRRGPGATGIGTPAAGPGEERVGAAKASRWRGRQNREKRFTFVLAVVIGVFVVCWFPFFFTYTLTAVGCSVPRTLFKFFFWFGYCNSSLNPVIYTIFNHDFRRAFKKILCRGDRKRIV
# Description: as §1
# ETA [2] = target: T1, ETA; experiment: Bioprofiling 6pt Antag ETA CHO; type: cell-based; details: antagonist readout vs Endothelin-1 (ET-1)
# Description: as §1
# MRC-5 cytotoxicity = type: cell-based; details: human, MRC-5 cells; S1 Data
# [3] = Mouse single-dose pharmacokinetics; type: in vivo; details: for free plasma concentration (corrected by PPB) versus in vitro IC50 (corrected for medium binding): after single oral dosing
# Description: Compounds were administered to groups (n = 6) of female BALB/c mice via single intravenous dosing (at 2 mg/kg) or single oral dosing (at 50 mg/kg) employing a solution/suspension vehicle comprising of 10% ethanol, 40% PEG400 and 0.4% Tween80 in saline buffer (pH adjusted to 9). Samples derived from plasma (at 0.083 for iv only, 0.25, 1, 2, 4, 8 and 24 h) were quantified by LC−MS/MS. Data analysis and calculation of pharmacokinetic parameters was performed using Phoenix WinNonlin version 7.0.
# [4] = female, BALB/c, plasma, single oral dose 50 mg/kg
# [5] = female, BALB/c, plasma, single oral dose 50 mg/kg, read-out: Cmax
SMILES,CC50 (MRC-5 cells) [µM],CC50 (HEPG2 cytotoxicity) [µM],Plasma Stability (Plasma stability) [%],pEC50 (ETA [1]),pEC50 (PPARgamma),pIC50 (Alpha2A),pIC50 (ETA [2]),CC50 (MRC-5 cytotoxicity) [µM],pIC50 (MRC-5 cells),Mouse plasma stability (Plasma stability) [%],free plasma concentration (corrected by PPB) versus in vitro IC50 (corrected for medium binding) [3],"Cmax ([3]; female, BALB/c, plasma, single 50 mg/kg oral dose, read-out: total Cmax) [µM]","AUC(0-t) [3, 4] [ng·h/mL]","half-life [3, 4] [h]","Cmax [3, 5] [ng/mL]",exposure (AUClast) compared to 29 at the same dose ([3]; oral 50 mg/kg) [fold],"higher AUClast, 50 vs 10 mg/kg oral [3]","increase in Cmax, 50 vs 10 mg/kg oral [3] [fold]","clearance ([3]; female, BALB/c, plasma, 2 mg/kg IV) [mL/min/kg]","bioavailability [3, 4] [%]"
"N#Cc1ccc2nc(NC(=O)c3ccc(C(F)(F)F)nc3)n(CC(F)(F)F)c2c1 [Compound 45, O=C(c1ccc(C(F)(F)F)nc1)Nc2nc(ccc(C#N)c3)c3n2CC(F)(F)F]",> 64,1.12,135,< 5.00,< 5.00,< 5.00,< 5.00,–,–,–,–,–,–,–,–,–,–,–,–,–
"Cn1nc(C(F)(F)F)cc1C(=O)Nc1nc2ccc(C#N)cc2n1CC(F)(F)F [Compound 39, O=C(c1cc(C(F)(F)F)nn1C)Nc2nc(ccc(C#N)c3)c3n2CC(F)(F)F]",–,1.13,111,< 5.00,< 5.00,< 5.00,< 5.00,7.87,4.83,111,up to four times above the free IC50,~17,63700,8,7300,2,–,–,–,–
"Cn1nccc1C(=O)Nc1nc2ccc(C#N)cc2n1CC(C)(C)C [Compound 29, O=C(Nc1n(CC(C)(C)C)c(c2n1)cc(C#N)cc2)c3n(C)ncc3]",–,9.08,99.80,< 5.00,< 5.00,< 5.00,< 5.00,14.9,< 4.19,99.8,below the in vitro IC50,–,35400,–,2000,–,approximately 4 fold,2,9,37
"N#Cc1ccc2nc(NC(=O)c3ccnc(C(F)(F)F)c3)n(CC(F)(F)F)c2c1 [Compound 44, O=C(c1ccnc(C(F)(F)F)c1)Nc2nc(ccc(C#N)c3)c3n2CC(F)(F)F]",> 64,2.38,110.80,< 5.00,< 5.00,< 5.00,< 5.00,–,–,111,–,–,–,–,–,–,–,–,–,–
"Cn1nccc1C(=O)Nc1nc2ccc(C#N)cc2n1CC(F)(F)F [Compound 30, O=C(c1ccnn1C)Nc2nc(ccc(C#N)c3)c3n2CC(F)(F)F]",–,5.46,107,< 5.00,< 5.00,< 5.00,< 5.00,12.8,–,107,–,–,25200,6.8,2000,–,–,–,–,–
"COc1ccc(C(=O)Nc2nc3ccc(C#N)cc3n2CC(F)(F)F)cn1 [Compound 43, O=C(c1ccc(OC)nc1)Nc2nc(ccc(C#N)c3)c3n2CC(F)(F)F]",–,2.6,92.20,< 5.00,< 5.00,< 5.00,< 5.00,> 64,–,–,–,–,–,–,–,–,–,–,–,–
